# Laboratory results from patent US8759386B2, “Pyrazole compounds as CRTH2 antagonists” (Boehringer Ingelheim International GmbH, priority 2011, dated 2014).
# Target: human CRTH2 receptor (Homo sapiens (Human), UniProt Q9Y5Y4)
# Test: CRTH2 receptor radioligand binding assay (SPA, [3H]-PGD2, CHO-K1-hCRTH2 cell membranes)
# Settings: Table 1, compounds of formula Ia″; displacement of [3H]-PGD2 from CHO-K1-hCRTH2 membranes
# Protocol: Preparation of Human CRTH2 Receptor Membranes and Radioligand Binding Assay
# The binding of CRTH2 antagonists is determined using membranes prepared from Chinese hamster ovary cells (CHO-K1 cells) transfected with the human CRTH2 receptor (CHO-K1-hCRTH2 cells, Perkin Elmer, Cat No ES-561-C). To produce cell membranes the CHO-K1-hCRTH2 cells are cultured in suspension in CHO SFMII medium supplemented with 400 μg/mL G418. The cells are harvested by centrifugation at 300 g for 10 min at room temperature. The cell pellet is resuspended in Phosphate Buffer Saline (PBS) including a protease inhibitor mix (Complete, Roche) and adjusted to a concentration of 10E7 cells/mL. The CHO-K1-hCRTH2 cells are disrupted by nitrogen […] to obtain the membrane preparation. Cell debris is removed by centrifugation (500 g at 4° C., 30 min) and the supernatant is transferred into fresh tubes followed by a second centrifugation at 40000 g for 1 hour at 4° C. to sediment the membranes. The membranes are suspended in SPA incubation buffer (50 mM Tris HCl, 10 mM MgCl2, 150 mM NaCl, 1 mM EDTA, pH 7.4) without bovine serum albumin, homogenized by passing through a single use needle (Terumo, 23G×1″), and stored in aliquots at −80° C.
# The CRTH2 receptor binding assay is performed in a scintillation proximity assay (SPA) format with the radioligand [^3H]-PGD2 (Perkin Elmer, NET616000MC). CHO-K1-hCRTH2 cell membranes are again homogenized by passing through a single use needle (Terumo, 23G×1″) and diluted in SPA incubation buffer in suitable concentrations (0.5-10 μg protein/well). The SPA assay is set up in 96 well microtiter plates (Perkin Elmer, Cat No. 6005040) in SPA incubation buffer with a final volume of 200 μL per well and final concentration of 50 mM Tris-HCl, 10 mM MgCl2, 150 mM NaCl, 1 mM EDTA pH 7.4, 0.1% bovine serum albumin). The SPA assay mixture contains 60 μl of the membrane suspension, 80 μL of Wheat Germ Agglutinin coated PVT beads (GE Healthcare, RPNQ-0001, 0.3 mg/well), 40 μL of [^3H]-PGD2 diluted in SPA buffer to a final concentration of 1 nM (50 000 dpm) and 20 μL of the test compound (dissolved in dimethylsulfoxide). The SPA assay mixture is incubated for 3 h at room temperature. Bound radioactivity is determined with a scintillation counter (Micro Beta Trilux, Wallac). The binding of [^3H]-PGD2 to CHO-K1-hCRTH2 cell membranes is determined in the absence (total binding, Bo) and presence (non-specific binding, NSB) of unlabelled PGD2 (1 μM, Cayman Chemical, Cat No 12010) or a reference CRTH2 antagonist (10 μM CAY10471, Cayman Chemical, Cat No 10006735). Determination of the affinity of a test compound is calculated by subtraction of the non-specific binding (NSB) from the total binding (Bo) or the binding in the presence of the test compound (B) at a given compound concentration. The NSB value is set to 100% inhibition. The Bo-NSB value is set to 0% inhibition.
# % inhibition values were obtained at a defined compound concentration, e.g. at 1 μM, % inhibition of the test compound was calculated by the formula 100−((B−NSB)*100/(Bo−NSB)). % inhibition values above 100% are founded by assay variance.
# Chain of human CRTH2 receptor (Q9Y5Y4 whole entry): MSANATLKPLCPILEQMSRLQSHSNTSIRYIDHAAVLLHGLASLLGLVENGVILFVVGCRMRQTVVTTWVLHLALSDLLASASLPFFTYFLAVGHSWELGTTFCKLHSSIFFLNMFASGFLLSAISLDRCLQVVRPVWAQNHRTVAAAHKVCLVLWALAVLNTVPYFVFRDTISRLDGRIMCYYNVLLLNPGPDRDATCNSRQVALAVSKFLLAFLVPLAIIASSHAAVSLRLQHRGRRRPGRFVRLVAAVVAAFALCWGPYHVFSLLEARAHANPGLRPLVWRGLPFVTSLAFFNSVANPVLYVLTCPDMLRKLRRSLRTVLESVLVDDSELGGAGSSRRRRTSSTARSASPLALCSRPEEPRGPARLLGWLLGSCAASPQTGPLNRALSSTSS
row,Structure (SMILES),Ki
1,Cc1nn(Cc2ccc(NC(=O)c3sc4ccc(F)cc4c3C)cc2F)c(C)c1CC(=O)O [Compound 46],4.5 nM
2,Cc1nn(Cc2ccc(NC(=O)c3cc4ccc(Cl)cc4o3)cc2F)c(C)c1CC(=O)O [Compound 39],0.4 nM
3,CCCc1c(C(=O)Nc2ccc(Cn3nc(C)c(CC(=O)O)c3C)c(F)c2)oc2ccc(F)cc12 [Compound 52],0.7 nM
4,CCc1c(C(=O)Nc2ccc(Cn3nc(C)c(CC(=O)O)c3C)cc2)oc2c(F)cccc12 [Compound 34],0.3 nM
5,CCc1nn(Cc2ccc(NC(=O)c3cc4cc(Cl)ccc4o3)cc2)c(CC)c1CC(=O)O [Compound 19],0.2 nM
6,CCc1c(C(=O)Nc2ccc(Cn3nc(C)c(CC(=O)O)c3C)cc2)oc2c(F)cc(F)cc12 [Compound 35],0.3 nM
7,CCCn1c(C(=O)Nc2ccc(Cn3nc(C)c(CC(=O)O)c3C)c(F)c2)cc2ccccc21 [Compound 56],0.2 nM
8,CCCn1c(C(=O)Nc2ccc(Cn3nc(C)c(CC(=O)O)c3C)c(F)c2)cc2cc(F)ccc21 [Compound 54],0.2 nM
9,"Cc1nn(Cc2ccc(NC(=O)c3oc4c(Cl)cccc4c3C)cc2)c(C)c1CC(=O)O [Compound 33, (1-(4-[(7-Chloro-3-methylbenzofuran-2-carbonyl)amino]benzyl)-3,5-dimethyl-1H-pyrazol-4-yl)acetic acid]",2.2 nM
10,CCn1c(C(=O)Nc2ccc(Cn3nc(C)c(CC(=O)O)c3C)c(F)c2)cc2ccc(F)cc21 [Compound 41],0.1 nM
11,CCCn1c(C(=O)Nc2ccc(Cn3nc(C)c(CC(=O)O)c3C)c(F)c2)cc2ccc(F)cc21 [Compound 42],0.1 nM
12,Cc1nn(Cc2ccc(NC(=O)c3oc4c(Cl)cccc4c3C)cc2F)c(C)c1CC(=O)O [Compound 37],2.2 nM
13,Cc1nn(Cc2ccc(NC(=O)c3cc4ccccc4n3C)cc2F)c(C)c1CC(=O)O [Compound 30],1 nM
14,Cc1nn(Cc2ccc(NC(=O)c3oc4c(F)cccc4c3C)cc2F)c(C)c1CC(=O)O [Compound 50],0.4 nM
15,Cc1nn(Cc2ccc(NC(=O)c3oc4ccc(Cl)cc4c3C)cc2F)c(C)c1CC(=O)O [Compound 44],0.3 nM
16,CCc1c(C(=O)Nc2ccc(Cn3nc(C)c(CC(=O)O)c3C)c(F)c2)oc2ccc(F)cc12 [Compound 47],0.9 nM
17,COCc1c(C(=O)Nc2ccc(Cn3nc(C)c(CC(=O)O)c3C)c(F)c2)oc2ccccc12 [Compound 43],2.3 nM
18,Cc1nn(Cc2ccc(NC(=O)c3cc4ccccc4n3Cc3ccccc3)cc2F)c(C)c1CC(=O)O [Compound 3],0.2 nM
19,CCc1nn(Cc2ccc(NC(=O)c3cc4ccccc4[nH]3)cc2)c(CC)c1CC(=O)O [Compound 20],0.3 nM
20,CCc1nn(Cc2ccc(NC(=O)c3cc4ccccc4n3CC)cc2)c(CC)c1CC(=O)O [Compound 22],0.2 nM
21,CCn1c(C(=O)Nc2ccc(Cn3nc(C)c(CC(=O)O)c3C)c(F)c2)cc2c(F)cccc21 [Compound 40],0.4 nM
22,CCc1nn(Cc2ccc(NC(=O)c3cc4ccccc4n3C)cc2)c(CC)c1CC(=O)O [Compound 21],0.3 nM
23,CCc1nn(Cc2ccc(NC(=O)c3c(C)c4ccccc4n3C)cc2)c(CC)c1CC(=O)O [Compound 24],9.9 nM
24,COc1ccc2oc(C(=O)Nc3ccc(Cn4nc(C)c(CC(=O)O)c4C)c(F)c3)c(C)c2c1 [Compound 49],0.1 nM
25,CCn1c(C(=O)Nc2ccc(Cn3nc(C)c(CC(=O)O)c3C)c(F)c2)cc2ccccc21 [Compound 31],0.2 nM
26,Cc1nn(Cc2ccc(NC(=O)c3cc4ccccc4o3)cc2Cl)c(C)c1CC(=O)O [Compound 5],0.8 nM
27,Cc1nn(Cc2ccc(NC(=O)c3cc4cc(F)ccc4n3C)cc2F)c(C)c1CC(=O)O [Compound 51],0.4 nM
28,Cc1nn(Cc2ccc(NC(=O)c3cc4ccccc4n3Cc3ccccc3)cc2)c(C)c1CC(=O)O [Compound 18],< 0.1 nM
29,CCCCn1c(C(=O)Nc2ccc(Cn3nc(C)c(CC(=O)O)c3C)c(F)c2)cc2cc(F)ccc21 [Compound 55],0.1 nM
30,CCCCn1c(C(=O)Nc2ccc(Cn3nc(C)c(CC(=O)O)c3C)c(F)c2)cc2ccccc21 [Compound 53],0.2 nM

# Next, values leading:
row,Ki,Structure (SMILES)
1,1.3 nM,Cc1nn(Cc2ccc(NC(=O)c3oc4c(F)cccc4c3C)cc2)c(C)c1CC(=O)O [Compound 7]
2,0.2 nM,Cc1nn(Cc2ccc(NC(=O)c3cc4ccc(F)cc4[nH]3)cc2)c(C)c1CC(=O)O [Compound 11]
3,0.4 nM,CCn1c(C(=O)Nc2ccc(Cn3nc(C)c(CC(=O)O)c3C)cc2)cc2ccccc21 [Compound 17]
4,0.3 nM,CCc1nn(Cc2ccc(NC(=O)c3cc4cc(F)ccc4[nH]3)cc2)c(CC)c1CC(=O)O [Compound 23]
5,63.9 nM,Cc1nn(Cc2ccc(NC(=O)c3c(C)c4ccccc4n3C)cc2)c(C)c1CC(=O)O [Compound 13]
6,0.2 nM,Cc1nn(Cc2ccc(NC(=O)c3cc4ccc(Cl)cc4o3)cc2)c(C)c1CC(=O)O [Compound 36]
7,0.3 nM,Cc1nn(Cc2ccc(NC(=O)c3cc4cc(Cl)ccc4o3)cc2)c(C)c1CC(=O)O [Compound 8]
8,1.2 nM,COc1cccc2cc(C(=O)Nc3ccc(Cn4nc(C)c(CC(=O)O)c4C)cc3)oc12 [Compound 9]
9,0.8 nM,Cc1nn(Cc2ccc(NC(=O)c3cc4ccccc4n3C)cc2)c(C)c1CC(=O)O [Compound 16]
10,0.3 nM,Cc1nn(Cc2ccc(NC(=O)c3cc4ccccc4s3)cc2)c(C)c1CC(=O)O [Compound 15]
11,0.2 nM,CCc1nn(Cc2ccc(NC(=O)c3cc4ccc(F)cc4[nH]3)cc2)c(CC)c1CC(=O)O [Compound 25]
12,0.2 nM,Cc1nn(Cc2ccc(NC(=O)c3cc4cc(F)ccc4[nH]3)cc2)c(C)c1CC(=O)O [Compound 12]
13,0.1 nM,COc1ccc2[nH]c(C(=O)Nc3ccc(Cn4nc(C)c(CC(=O)O)c4C)cc3)c(C)c2c1 [Compound 14]
14,0.2 nM,Cc1nn(Cc2ccc(NC(=O)c3cc4ccccc4[nH]3)cc2)c(C)c1CC(=O)O [Compound 10]
15,0.1 nM,CCn1c(C(=O)Nc2ccc(Cn3nc(C)c(CC(=O)O)c3C)cc2)cc2ccc(F)cc21 [Compound 29]
16,0.5 nM,Cc1nn(Cc2ccc(NC(=O)c3cc4ccccc4[nH]3)cc2Cl)c(C)c1CC(=O)O [Compound 2]
17,0.6 nM,COc1ccc2oc(C(=O)Nc3ccc(Cn4nc(C)c(CC(=O)O)c4C)cc3)cc2c1 [Compound 6]
18,0.1 nM,CCCn1c(C(=O)Nc2ccc(Cn3nc(C)c(CC(=O)O)c3C)cc2)cc2ccc(F)cc21 [Compound 28]

# Same assay, conditions: Table 2, compounds of formula Ib″; displacement of [3H]-PGD2 from CHO-K1-hCRTH2 membranes
row,Ki,Structure (SMILES)
1,8.8 nM,Cc1nn(Cc2ccc(NC(=O)c3coc4ccccc34)cc2)c(C)c1CC(=O)O [Compound 57]
2,3.8 nM,Cc1nn(Cc2ccc(NC(=O)c3csc4ccccc34)cc2)c(C)c1CC(=O)O [Compound 59]
3,37.2 nM,Cc1nn(Cc2ccc(NC(=O)c3c[nH]c4ccccc34)cc2)c(C)c1CC(=O)O [Compound 58]
